Results as given in PubChem BioAssay AID179 (DTP/NCI, 2004).
Calls of active or inactive are those of the source.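 The calls were made as follows: active = compounds giving half or more protection of infected cells from virus-caused growth loss, again on retest; inactive = the rest.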

Test system: CEM cells HIV-1 protection, formazan growth assay
Assay: NCI AIDS Antiviral Assay
Conditions: for IC50: measured here: growth of uninfected CEM cells
Method in brief: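 Soluble formazan readout of cell growth; CEM cells ± HIV-1; 5 drug concs. ≥50% protection → retest; ≥50% again = moderately active; reproducible 100% = confirmed active.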

Row | Structure (SMILES) | EC50 | IC50 | outcome
1 | O=c1c2ccc(Cl)cc2oc2ccc(Cl)cc12 | > 26.9 µM | > 26.9 µM | –
2 | Clc1ccc(CN2COc3c(cc(Cl)c4cccnc34)C2)cc1Cl | > 200 µM | 1.07 µM | –
3 | CCOC(=O)c1cc(C2CCN(CC(C)CC)C2=S)c(-c2cc(C)no2)[nH]1 (stereo not given) | > 200 µM | > 200 µM | –
4 | Cn1c(=O)sc2cc(C(=S)N3CCC(Cc4ccccc4)CC3)ccc21 | > 200 µM | 36.3 µM | –
5 | CN(C)c1ncnc2c1ncn2C1OC(CO)C2NP(=O)(N(CCCl)CCCl)OC21 (stereo not given) | > 200 µM | > 200 µM | –
6 | O=C(/C=C/c1c(O)ccc2ccccc12)c1cccc(O)c1 | > 617 µM | 91.2 µM | –
7 | CN1C/C(=C\c2ccco2)c2nc(N)nc(-c3ccco3)c2C1 | – | – | inactive
8 | OC(c1ccco1)C(F)(F)c1nc2ccccc2o1 (stereo not given) | > 200 µM | > 200 µM | –
9 | O=C1C=C(O)c2ccccc2C1=O | > 200 µM | 120 µM | –
10 | OCCCNc1ccnc2cc(Cl)ccc12 | > 912 µM | 81.3 µM | –
11 | O=C1C=Cc2noc3cccc1c23 | – | – | inactive
12 | COC(=O)[C@@H]1OC(C)(c2ccccc2)O[C@H]1C(=O)OC | > 200 µM | > 200 µM | –
13 | O=[N+]([O-])c1ccccc1S(=O)(=O)Oc1ccc(Cl)cc1 | – | – | active
14 | N=c1c2ccccc2nc2oc3cc([N+](=O)[O-])ccc3n12 | > 195 µM | 138 µM | –
15 | COc1ccccc1/C=C1\Sc2scc(-c3ccc(O)c(O)c3)[n+]2C1=O | > 200 µM | 3.89 µM | –
16 | CC/C(=N/OC(=O)NC)c1ccccc1 | > 200 µM | > 200 µM | –
17 | N#C/C(=C/c1ccco1)C(=O)c1ccccc1 | > 162 µM | > 162 µM | –
18 | N#CC(/C=C/c1ccccc1)Nc1ccccc1 (stereo not given) | > 22.4 µM | > 22.4 µM | –
19 | O=C(NNC1=NCCCN1)c1ccco1 | > 200 µM | > 200 µM | –
20 | C#CCCOC(=O)CC1=C(C)/C(=C/c2ccc(S(C)=O)cc2)c2ccc(F)cc21 (stereo not given) | > 200 µM | 14.8 µM | –
21 | Cc1c2[nH]c3ccc(Br)cc3c2c(C)c2[nH]ccc(=O)c12 | > 3.31 µM | > 3.31 µM | –
22 | CC1(C)C2CCC(N)(C2)C1N (stereo not given) | > 200 µM | > 200 µM | –

Row | Structure (SMILES) | EC50 | IC50 | outcome
23 | CCC1CC2CN3CCc4c([nH]c5c(-c6c(OC)ccc7c8c([nH]c67)[C@]6(C(=O)OC)CC7CC(CC)C6N(CC8)C7)c(O)ccc45)[C@](C(=O)OC)(C2)C13 (stereo not given in full) | > 200 µM | 12.9 µM | –
24 | CN1CCCCC1CCN1c2ccccc2Sc2ccc(S(C)=O)cc21 (stereo not given) | 166 µM | 219 µM | –
25 | O=C1CSC(c2ccc(Cl)cc2)N1c1ccc(-n2c(-c3ccccc3)nc3ccccc3c2=O)cc1 (stereo not given) | > 200 µM | 67.6 µM | –
26 | C=CCCCCC1CCC2CCC(CCCC)N12 (stereo not given) | > 525 µM | > 525 µM | –
27 | O=C1CCCC(O)=C1SC1=C(O)CCCC1=O | – | – | inactive
28 | CN(/N=C/c1cccc2cccnc12)c1c([N+](=O)[O-])cc([N+](=O)[O-])cc1[N+](=O)[O-] | – | – | inactive
29 | O=C1N[C@H]2c3c(Cl)sc(Cl)c3/C(=N/O)[C@H]2O1 | > 200 µM | 95.5 µM | –
30 | CSc1cc(-c2ccc(Cl)cc2)s[s+]1 | 50.1 µM | 115 µM | –
31 | c1ccc2c(CN3CCC(C4CCN(Cc5cccc6ccccc56)CC4)CC3)cccc2c1 | > 200 µM | 0.933 µM | –
32 | CC(C)(C)c1nc2c(o1)C(=Nc1ccccc1)c1ccccc1C2=O | – | – | inactive
33 | CC(=O)OCC1OC(n2c(-c3ccccc3)c(N=Nc3ccccc3)c(C)c(C#N)c2=S)C(OC(C)=O)C(OC(C)=O)C1OC(C)=O (stereo not given) | > 200 µM | > 200 µM | –
34 | [O-][n+]1onc2c1-c1nonc1CC2 | > 200 µM | 26.9 µM | –
35 | CC1(C)OC(=O)C(C)(C)OC1=O | > 200 µM | > 200 µM | –
36 | CC(C)(C)c1cc(Oc2ccc(C#N)c(C#N)c2)cc(C(C)(C)C)c1 | > 40.7 µM | > 40.7 µM | –
37 | COc1ccc(-n2c(=O)n(C)c(=O)n2-c2ccc(OC)cc2)cc1 | > 200 µM | > 200 µM | –
38 | CC(C)(C)OC(=O)NS(=O)(=O)Nc1ccccc1 | > 200 µM | > 200 µM | –
39 | COC(=O)c1ccc(CO/N=C(\c2ccccc2)c2cccnc2)cc1 | > 200 µM | 47.9 µM | –
40 | CC(C)C1=CC2=CC=C3C(C)(C)CC(=O)OC3(C)CC2=C(O)C1=O (stereo not given) | – | – | inactive
41 | c1ccc(C2=NCCN2)c(C2=NCCN2)c1 | > 200 µM | > 200 µM | –
42 | CC(=O)C1=C(N=[N+]=[N-])c2cccc3cccc(c23)C1=O | – | – | inactive
43 | O=C1NC(=S)N/C1=C\c1cccs1 | > 200 µM | 182 µM | –
44 | COC(=O)c1nc(N)nc(C(=O)OC)c1C(=O)c1ccccc1 | > 60.3 µM | > 60.3 µM | –
